Measurements: doi:10.1101/2020.01.28.923938v1 (biorxiv, 2020)

Molecular target: CYP2D6 (Homo sapiens, UniProt P10635)
Test: in situ kinetics of dextrorphan formation in HLM, ADE-OPI-MS
Assay type: biochemical

CYP2D6, sequence (P10635 whole entry): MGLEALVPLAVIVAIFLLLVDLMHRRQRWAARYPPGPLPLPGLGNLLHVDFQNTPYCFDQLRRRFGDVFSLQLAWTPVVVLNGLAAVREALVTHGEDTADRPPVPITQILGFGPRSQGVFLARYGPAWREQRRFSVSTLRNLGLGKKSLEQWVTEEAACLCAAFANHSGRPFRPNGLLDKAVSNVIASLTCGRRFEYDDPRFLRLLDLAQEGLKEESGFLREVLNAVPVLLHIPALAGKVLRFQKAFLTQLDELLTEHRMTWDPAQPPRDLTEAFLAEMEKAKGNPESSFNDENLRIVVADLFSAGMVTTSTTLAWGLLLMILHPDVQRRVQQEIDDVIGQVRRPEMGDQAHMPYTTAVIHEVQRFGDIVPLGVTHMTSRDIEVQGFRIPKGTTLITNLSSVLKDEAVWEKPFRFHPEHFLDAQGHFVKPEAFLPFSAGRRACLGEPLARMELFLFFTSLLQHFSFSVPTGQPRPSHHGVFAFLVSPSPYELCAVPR

`COc1ccc2c(c1)[C@]13CCCC[C@@H]1[C@H](C2)N(C)CC3` [dextromethorphan] gave a Km of 3.79 µM.
